Test results: paper PMC11371747, “The role of l-leucovorin uptake and metabolism in the modulation of 5-fluorouracil efficacy and antifolate toxicity” (Frontiers in Pharmacology, 2024)
Where two headings read alike, the source gives them in different places.

Legend:
MSTO-211H cells = assay: Growth inhibition, SRB assay, MSTO-211H (MPM); assay type: cell-based, human; conditions: SRB, read-out: IC50, 72 h drug exposure
Description: (§1) Briefly, cells were seeded in triplicate in 96-well plates at their pre-established optimal density (CHO cells: 2,500 cells/100 μL; WiDr and HT29: 3,500 cells/100 μL; WiDr-LF/LV, LS174T: 5,000 cells/100 μL; CaCo2, CaCo2-LF/LV, H292, H28 and MSTO-211H: 6,000 cells/100 μL; H460, SW948 and SW1398: 7,000 cells/100 μL) and were allowed to attach for ∼ 24 h at 37°C in 5% CO2 and 100% humidified incubator. Thereafter, 100 μL of drug dilution without LV, or with 5 μM l-LV/5 μM d-LV/10 μM dL-LV (or any LV alone) were added. Cells were allowed to grow for 72 h at 37°C in 5% CO2 and 100% humidity. The t = 0 h control plate consisted of cells plated on the same day as the other cells, but after 24 h at 37°C in 5% CO2 and 100% humidity, only 100 μL medium was added and the cells were fixed immediately with 50% trichloroacetic acid (TCA) in milliQ water (25 μL per well) and put at 4°C for at least 1 h. Plates were washed five times with water and dried. Cells were stained with the SRB protein dye (0.4% (w/v) in 1% acetic acid. Excess dye was washed away four times with 1% acetic acid and plates were dried again. 200 μL of Tris (10 mM Tris (hydroxymethyl)-aminomethane in MQ) was added and optical density (OD) was read at 492 nm after mixing 2–3 min on a plate shaker.

[1] = molecular target: T1, thymidylate synthase (TS) (Homo sapiens, UniProt P04818); assay: TS in situ inhibition assay (TSIA) in colon cancer cells; assay type: cell-based
T1 construct: The principle of this assay is the measurement of TS enzymatic activity in intact cells; endogenous in cells; host or cells: colon cancer cell lines (WiDr, WiDr-LF, SW1398, LS174T and others)
Source text: The principle of this assay is the measurement of TS enzymatic activity in intact cells. Intact cells will readily internalize radioactively labelled [5-^3H]-deoxycytidine, which will be rapidly converted by deoxycytidine kinase (dCK) to [5-^3H]-dCMP and subsequently deaminated to [5-^3H]-dUMP, which will then serve as a substrate in the TS catalysed reaction to dTMP and ^3H2O; the quantity of ^3H2O formed over time is a measure of intracellular TS activity. […] This is because dCK has a higher, cell cycle independent activity than thymidine kinase 1, which is a cell cycle dependent enzyme. For this purpose, cancer cells were cultured in six wells plates at 2.5 × 10^5 cells/2 mL/well for 24 h. Thereafter, cells were exposed to drugs with or without the LV formulations at the indicated concentrations for 4 h. 2 h before the end of the incubation period [5-^3H]-2′-deoxycytidine (final concentration 1 µM) was added to the cells. […] In most cell lines we quantified dCK activity and dCK mRNA levels.

H292 cells = assay: Growth inhibition, SRB assay, H292 (NSCLC); assay type: cell-based, human; conditions: H292, SRB, read-out: IC50, 72 h drug exposure
Description: as §1

CHO/C5-MOCK cells = assay: Growth inhibition, SRB assay, CHO/C5-MOCK (empty vector); assay type: cell-based, Chinese hamster
Description: as §1

AA8 cells = assay: Growth inhibition, SRB assay, AA8 (parental CHO); assay type: cell-based, Chinese hamster; conditions: for IC50: AA8 parental CHO
Description: as §1

NSCLC and MPM cell lines = assay: Growth inhibition, SRB assay, NSCLC and MPM cell lines; assay type: cell-based, human; conditions: 5 µM l-LV, H28, MSTO-211H, H460, H292
Description: as §1

CHO/C5-PCFT cells = assay: Growth inhibition, SRB assay, CHO/C5-PCFT (PCFT-transfected); assay type: cell-based, Chinese hamster
Description: as §1

CHO/C5-hRFC cells = assay: Growth inhibition, SRB assay, CHO/C5-hRFC (human RFC transfected); assay type: cell-based, Chinese hamster; conditions: CHO/C5-hRFC
Description: as §1

H460 cells = assay: Growth inhibition, SRB assay, H460 (NSCLC); assay type: cell-based, human; conditions: H460, SRB, read-out: IC50, 72 h drug exposure
Description: as §1

CHO/C5 cells = assay: Growth inhibition, SRB assay, CHO/C5 (RFC-deficient); assay type: cell-based, Chinese hamster
Description: as §1

H28 cells = assay: Growth inhibition, SRB assay, H28 (MPM); assay type: cell-based, human; conditions: H28, SRB, read-out: IC50, 72 h drug exposure
Description: as §1

LS174T cells = assay: Growth inhibition, SRB assay, LS174T; assay type: cell-based; conditions: Homo sapiens, 72 h, read-out: IC50, 72 h drug exposure
Description: as §1

SW948 cells = assay: Growth inhibition, SRB assay, SW948; assay type: cell-based; conditions: Homo sapiens, SW948, 72 h, read-out: IC50, 72 h drug exposure
Description: as §1

HT29 cells = assay: Growth inhibition, SRB assay, HT29; assay type: cell-based; conditions: Homo sapiens, HT-29, 72 h, read-out: IC50, 72 h drug exposure
Description: as §1

colon cancer cell lines = assay: Growth inhibition, SRB assay, panel of colon cancer cell lines; assay type: cell-based, human; conditions: Homo sapiens, read-out: IC50 range over colon cancer cell lines
Description: as §1

CaCo2 LF/LV cells = assay: Growth inhibition, SRB assay, CaCo2 LF/LV; assay type: cell-based; conditions: Homo sapiens, Caco-2, 72 h, read-out: IC50, 72 h drug exposure
Description: as §1

CaCo2 cells = assay: Growth inhibition, SRB assay, CaCo2; assay type: cell-based; conditions: Homo sapiens, Caco-2, 72 h, read-out: IC50, 72 h drug exposure
Description: as §1

SW1398 cells = assay: Growth inhibition, SRB assay, SW1398; assay type: cell-based; conditions: Homo sapiens, 72 h, read-out: IC50, 72 h drug exposure
Description: as §1

WiDr cells = assay: Growth inhibition, SRB assay, WiDr; assay type: cell-based; conditions: Homo sapiens, 72 h, read-out: IC50, 72 h drug exposure
Description: as §1

WiDr LF/LV cells = assay: Growth inhibition, SRB assay, WiDr LF/LV; assay type: cell-based, human; conditions: Homo sapiens, WiDr, 72 h, WiDr LF/LV, SRB, read-out: IC50, 72 h drug exposure
Description: as §1

[2] = Cricetulus griseus, antifolate alone

T1 sequence (P04818 2-313 limits assumed): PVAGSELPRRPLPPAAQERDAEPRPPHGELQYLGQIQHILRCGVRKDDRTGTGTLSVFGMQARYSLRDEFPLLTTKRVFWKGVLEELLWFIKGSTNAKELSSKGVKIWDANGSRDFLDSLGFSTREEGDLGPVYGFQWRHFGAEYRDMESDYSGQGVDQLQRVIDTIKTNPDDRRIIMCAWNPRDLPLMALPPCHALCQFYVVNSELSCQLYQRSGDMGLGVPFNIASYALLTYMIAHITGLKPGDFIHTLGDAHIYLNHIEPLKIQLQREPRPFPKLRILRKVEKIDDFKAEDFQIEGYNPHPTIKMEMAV

`Nc1nc2[nH]cc(CCc3ccc(C(=O)N[C@@H](CCC(=O)O)C(=O)O)cc3)c2c(=O)[nH]1` [PMX, pemetrexed] gave an IC50 (MSTO-211H cells; Homo sapiens, 72 h, antifolate alone) of 0.143 ± 0.014 µM, an IC50 (MSTO-211H cells; antifolate + 5 µM l-LV) of 21 µM and an IC50 ([1]; WiDr, 4 h, antifolate alone) of 0.175 ± 0.075 µM. The IC50 (H292 cells; antifolate + 5 µM l-LV) was 17 µM, the IC50 (H292 cells; Homo sapiens, NCI-H292, 72 h, antifolate alone) was 0.103 ± 0.012 µM and the IC50 (CHO/C5-MOCK cells; [2]) was 42 µM. The IC50 (CHO/C5-MOCK cells; antifolate + 5 µM l-LV) was over 100 µM, the “Protection by l-LV, increase of the IC50 value” (AA8 cells; AA8 cells, 5 µM l-LV) was 94 fold and the IC50 (AA8 cells; antifolate + 5 µM l-LV) was 3.5 µM. The IC50 (AA8 cells; [2]) was 0.037 µM, the “l-LV-mediated increase in the IC50 values, range over cell lines” value (NSCLC and MPM cell lines) was 144-211 fold and the IC50 (CHO/C5-PCFT cells; [2]) was 10.6 µM. For the same molecule, the IC50 (CHO/C5-PCFT cells; antifolate + 5 µM l-LV) was 49.2 µM, the IC50 (CHO/C5-hRFC cells; antifolate + 5 µM l-LV) was 29.3 µM and the IC50 (CHO/C5-hRFC cells; [2]) was 0.046 µM. The IC50 (H460 cells; antifolate + 5 µM l-LV) was 52.7 µM, the IC50 (H460 cells; Homo sapiens, NCI-H460, 72 h, antifolate alone) was 0.302 ± 0.012 µM and the IC50 (CHO/C5 cells; [2]) was 3.1 µM. For the same molecule, the IC50 (CHO/C5 cells; antifolate + 5 µM l-LV) was 59.6 µM, the IC50 (H28 cells; antifolate + 5 µM l-LV) was 34.3 µM and the IC50 (H28 cells; Homo sapiens, NCI-H28, 72 h, antifolate alone) was 0.28 ± 0.048 µM.
Molecule `O=c1[nH]cc(F)c(=O)[nH]1` [5-FU, 5-fluorouracil] has an IC50 (LS174T cells; 5-FU + 5 µM d-LV) of 10.5 ± 0.8 µM, an IC50 (LS174T cells; 5-FU + 5 µM l-LV) of 8.11 ± 0.71 µM and an IC50 (LS174T cells; 5-FU + 10 µM dl-LV) of 8.95 ± 0.72 µM. For the same molecule, the IC50 (LS174T cells; 5-FU alone) was 10.5 ± 0.82 µM, the IC50 ([1]; SW1398, 4 h, 5FU alone) was 4.14 ± 0.24 µM and the IC50 ([1]; WiDr, 4 h, 5FU alone) was 3.76 ± 0.35 µM. For the same molecule, the IC50 ([1]; WiDr-LF, 4 h, 5FU alone) was 3.67 ± 0.33 µM, the IC50 (SW948 cells; 5-FU + 5 µM d-LV) was 3.85 ± 0.66 µM and the IC50 (SW948 cells; 5-FU + 5 µM l-LV) was 2.63 ± 0.4 µM. The IC50 (SW948 cells; 5-FU + 10 µM dl-LV) was 2.78 ± 0.29 µM, the IC50 (SW948 cells; 5-FU alone) was 3.65 ± 0.41 µM and the IC50 (HT29 cells; 5-FU + 5 µM d-LV) was 7.5 ± 0.5 µM. It also gave an IC50 (HT29 cells; 5-FU + 5 µM l-LV) of 3.3 ± 0.2 µM, an IC50 (HT29 cells; 5-FU + 10 µM dl-LV) of 3.8 ± 0.3 µM and an IC50 (HT29 cells; 5-FU alone) of 7.9 ± 2.65 µM. For the same molecule, the IC50 (colon cancer cell lines; 5-FU + 5 µM d-LV) was 2 to 10.5 µM, the IC50 (colon cancer cell lines; 5-FU + 5 µM l-LV) was 1.3 to 8.1 µM and the IC50 (colon cancer cell lines; 5-FU + 10 µM dl-LV) was 1.4 to 8.9 µM. The IC50 (colon cancer cell lines; 5-FU only) was 1.8 to 10.5 µM, the IC50 (CaCo2 LF/LV cells; 5-FU + 5 µM d-LV) was 1.96 ± 0.62 µM and the IC50 (CaCo2 LF/LV cells; 5-FU + 5 µM l-LV) was 1.78 ± 0.18 µM. The IC50 (CaCo2 LF/LV cells; 5-FU + 10 µM dl-LV) was 1.78 ± 0.39 µM, the IC50 (CaCo2 LF/LV cells; 5-FU alone) was 2.05 ± 0.28 µM and the IC50 (CaCo2 cells; 5-FU + 5 µM d-LV) was 3.04 ± 0.66 µM. For the same molecule, the IC50 (CaCo2 cells; 5-FU + 5 µM l-LV) was 3.04 ± 0.39 µM, the IC50 (CaCo2 cells; 5-FU + 10 µM dl-LV) was 3.63 ± 0.38 µM and the IC50 (CaCo2 cells; 5-FU alone) was 3.08 ± 0.27 µM. It also gave an IC50 (SW1398 cells; 5-FU + 5 µM d-LV) of 2.4 ± 0.68 µM, an IC50 (SW1398 cells; 5-FU + 5 µM l-LV) of 1.28 ± 0.18 µM and an IC50 (SW1398 cells; 5-FU + 10 µM dl-LV) of 1.44 ± 0.37 µM. The IC50 (SW1398 cells; 5-FU alone) was 2.99 ± 0.47 µM, the IC50 (WiDr cells; 5-FU + 5 µM d-LV) was 4.21 ± 0.57 µM and the IC50 (WiDr cells; 5-FU + 5 µM l-LV) was 1.95 ± 0.2 µM. For the same molecule, the IC50 (WiDr cells; 5-FU + 10 µM dl-LV) was 2.91 ± 1.06 µM, the IC50 (WiDr cells; 5-FU alone) was 4.56 ± 0.34 µM and the IC50 (WiDr LF/LV cells; 5-FU + 5 µM d-LV) was 2.78 ± 0.34 µM. It also gave an IC50 (WiDr LF/LV cells; 5-FU + 5 µM l-LV) of 1.77 ± 0.15 µM, an IC50 (WiDr LF/LV cells; 5-FU + 10 µM dl-LV) of 1.75 ± 0.08 µM and an IC50 (WiDr LF/LV cells; 5-FU alone) of 1.83 ± 0.18 µM.
